Molecular target: sepiapterin reductase (hSPR) (Homo sapiens, UniProt P35270)
Experiment: cell-free TR-FRET binding assay

Sequence of sepiapterin reductase (hSPR) (P35270 whole entry): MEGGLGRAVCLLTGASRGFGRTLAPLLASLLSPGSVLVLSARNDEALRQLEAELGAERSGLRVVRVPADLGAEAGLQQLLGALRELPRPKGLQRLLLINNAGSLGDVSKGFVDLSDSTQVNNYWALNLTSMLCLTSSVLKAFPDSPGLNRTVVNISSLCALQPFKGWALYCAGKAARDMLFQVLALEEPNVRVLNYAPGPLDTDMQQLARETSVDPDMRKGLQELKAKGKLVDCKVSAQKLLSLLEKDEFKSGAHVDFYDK

CC(=O)NCCc1c[nH]c2ccc(O)cc12 [NAS, N-acetylserotonin]
IC50: 1.9 µM

Source: paper PMC4485422 (Neuron, 2015)
